Reference: US10472347B2, “Aminopyrazine compounds with A2A antagonist properties” (Merck Sharp & Dohme Corp., priority 2014, dated 2019)

Each compound was assayed against T1, human A2a receptor (Homo sapiens, UniProt P29274) (assay: A2a competition binding assay, Scintillation Proximity technology). Details: membranes from HEK293 cells expressing human A2a receptor; 0.5 nM tritiated ligand.
T1 construct: purchased Perkin-Elmer RBHA2AM400UA; host or cells: HEK293 cells (membranes)
Description: Binding affinities of compounds of the invention for the human A2a receptor were determined in a competition binding assay using Scintillation Proximity technology. Thus, […] from HEK293 cells expressing the human A2a receptor were incubated with a compound of the invention at concentrations ranging from 3000 nM to 0.15 nM in a reaction mixture containing also 0.5 nM of a tritiated form of 5-amino-7-[2-phenethyl]-2-(furan-2-yl)-7H-pyrazolo[4,3-e][1,2,4]triazolo[1,5-c]pyrimidine (the tritiated compound) and 100 μg of wheat germ agglutin-coated yttrium silicate SPA beads for one hour at room temperature with agitation. The beads were then allowed to settle to the bottom of the wells for 1 hr, after which the membrane-associated radioactivity was determined by scintillation counting in a TopCount microplate reader. Ki values were determined using the Cheng-Prusoff equation.
HEK293 cells expressing the human, rat, dog or monkey adenosine 2a receptor (Purchased from Perkin-Elmer # RBHA2AM400UA).
The Tritiated compound was prepared in-house by MRL Radiochemistry according to published methods.
Wheat germ agglutinin-coated yttrium silicate SPA beads (GE Healthcare #RPNQ0023). Dilute to 25 mg/ml in assay buffer.
Assay Buffer was prepared in house: Dulbecco's calcium and magnesium free phosphate buffered saline+10 mM MgCl2
Adenosine deaminase from calf intestine, 10 mg/2 ml (Roche #10 102 105 001).
A2a antagonist standard (9-chloro-1-(2-furanyl)-[1,2,4]triazolo1,5-c]quinazolin-5-amine from Tocris Bioscience)
Make eight 1:3 serial dilutions in 100% DMSO from a 3 mM compound stock
Transfer 50 nl of compound into a 384-well OptiPlate (Perkin Elmer).
Typically, final concentrations of compound used in the assay ranged from 3000 nM to 0.152 nM.
Dilute a solution of the Tritiated compound to 1.25 nM in assay buffer. This is a 2.5× solution. The final concentration in the assay is 0.5 nM. Calculate the concentration by counting two 5 μl aliquots.
Use 0.25 ug of membrane/well. Dilute membranes to 9.7 μg/ml in assay buffer. Treat with 20 ug/ml adenosine deaminase (ADA) for 15 minutes at room temperature to degrade endogenous adenosine.
Use 100 μg/well wheat germ agglutinin-coated yttrium silicate SPA beads.
Mix ADA-treated membranes and SPA beads together for 30 min prior to assay.
To the Perkin-Elmer Optiplate-384 containing the compound titration add 20 μl of 2.5× solution of the Tritiated compound and 30 μl of the membrane-bead mixture. Incubate for one hour at room temperature with agitation.
Include total binding (assay buffer+1% DMSO) and non-specific binding (CGS15943, 1 μM) wells.
Allow the beads to settle for one hour.
A curve fitting program (i.e., Prism, Activity Base, Chemcart) is used to determine the EC50. The Ki value is calculated using the Cheng-Prusoff equation. Ki=EC50/(1+(radioligand concentration/Kd))

T1 sequence (P29274 whole entry): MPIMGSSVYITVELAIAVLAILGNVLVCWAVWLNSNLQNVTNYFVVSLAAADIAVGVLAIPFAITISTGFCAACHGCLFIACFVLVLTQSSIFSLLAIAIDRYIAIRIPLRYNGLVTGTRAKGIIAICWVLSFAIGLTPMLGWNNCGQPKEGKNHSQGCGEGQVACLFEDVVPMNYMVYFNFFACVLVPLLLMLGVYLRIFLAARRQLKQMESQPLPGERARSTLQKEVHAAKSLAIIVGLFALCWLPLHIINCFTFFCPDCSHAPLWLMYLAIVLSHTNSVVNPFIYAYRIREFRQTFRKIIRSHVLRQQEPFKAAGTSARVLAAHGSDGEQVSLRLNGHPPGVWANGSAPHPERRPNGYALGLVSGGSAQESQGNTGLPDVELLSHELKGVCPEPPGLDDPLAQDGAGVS

| SMILES | EC50 |
| --- | --- |
| Cc1nc(C(=O)NCc2ncccc2C2CC2)c(N)nc1-c1ncco1 [Ex-4, 3-amino-N-((3-cyclopropylpyridin-2-yl)methyl)-6-methyl-5-(oxazol-2-yl)pyrazine-2-carboxamide] | 4.6 nM |
| Cc1nc(C(=O)NCc2ncccc2C2CC2)c(N)nc1-c1ncco1 [Ex-6, 3-amino-N-[(3-cyclopropylpyridin-2-yl)methyl]-6-methyl-5-(1,3-oxazol-2-yl)pyrazine-2-carboxamide] | 5.9 nM |
| Cc1cccc(CNC(=O)c2nc(C)c(-c3ncco3)nc2N)n1 [Ex-10, 3-amino-6-methyl-N-[(6-methylpyridin-2-yl)methyl]-5-(1,3-oxazol-2-yl)pyrazine-2-carboxamide] | 1.2 nM |

The remaining lines, values ahead:

| EC50 | SMILES |
| --- | --- |
| 3.4 nM | Cc1cccnc1CNC(=O)c1nc(C)c(-c2ncco2)nc1N [Ex-3, 3-amino-6-methyl-N-((3-methylpyridin-2-yl)methyl)-5-(oxazol-2-yl)pyrazine-2-carboxamide] |
| 4.7 nM | Cc1cccnc1CNC(=O)c1nc(C)c(-c2ncco2)nc1N [Ex-5, 3-amino-6-methyl-N-[(3-methylpyridin-2-yl)methyl]-5-(1,3-oxazol-2-yl)pyrazine-2-carboxamide] |
| 2.1 nM | Cc1nc(C(=O)NCc2cccc3cccnc23)c(N)nc1-c1ncco1 [Ex-9, 3-amino-6-methyl-5-(1,3-oxazol-2-yl)-N-(quinolin-8-ylmethyl)pyrazine-2-carboxamide] |

Same assay, conditions: membranes from HEK293 cells expressing human A2a receptor; Ki by Cheng-Prusoff equation

| SMILES | Ki |
| --- | --- |
| Cc1nc(C(=O)NC2CCOc3ccccc32)c(N)nc1-c1ncco1 (stereo in doubt) [Ex-145, 3-amino-N-[(4R)-3,4-dihydro-2H-chromen-44-yl]-6-methyl-5-(1,3-oxazol-2-yl)pyrazine-2-carboxamide] | 4.22 nM |
| Cc1nc(C(=O)NC2CCOc3ccccc32)c(N)nc1-c1ncco1 (stereo in doubt) [Ex-146, 3-amino-N-[(4S)-3,4-dihydro-2H-chromen-4-yl]-6-methyl-5-(1,3-oxazol-2-yl)pyrazine-2-carboxamide] | 5.57 nM |
| Cc1nc(C(=O)NCc2ncccc2C2CC2)c(N)nc1-c1ncco1 [Ex-6, 3-amino-N-[(3-cyclopropylpyridin-2-yl)methyl]-6-methyl-5-(1,3-oxazol-2-yl)pyrazine-2-carboxamide] | 0.224 nM |
| Cc1nc(C(=O)N[C@@H]2CCc3cccnc32)c(N)nc1-c1ncco1 [Ex-7A, (R)-3-amino-N-(6,7-dihydro-5H-cyclopenta[b]pyridin-7-yl)-6-methyl-5-(1,3-oxazol-2-yl)pyrazine-2-carboxamide] | 5.18 nM |
| Cc1cccc(CNC(=O)c2nc(C)c(-c3ncco3)nc2N)n1 [Ex-10, 3-amino-6-methyl-N-[(6-methylpyridin-2-yl)methyl]-5-(1,3-oxazol-2-yl)pyrazine-2-carboxamide] | 0.573 nM |
| Cc1nc(C(=O)NCc2c(F)cccc2F)c(N)nc1-c1ncco1 [Ex-11, 3-amino-N-(2,6-difluorobenzyl)-6-methyl-5-(1,3-oxazol-2-yl)pyrazine-2-carboxamide] | 0.125 nM |
| Cc1nc(C(=O)NCc2ncco2)c(N)nc1-c1ncco1 [Ex-13, 3-amino-6-methyl-5-(1,3-oxazol-2-yl)-N-(1,3-oxazol-2-ylmethyl)pyrazine-2-carboxamide] | 6.06 nM |
| Cc1nc(C(=O)NCc2ncccc2F)c(N)nc1-c1ncco1 [Ex-20, 3-amino-N-[(3-fluoropyridin-2-yl)methyl]-6-methyl-5-(1,3-oxazol-2-yl)pyrazine-2-carboxamide] | 0.365 nM |
| Cc1nc(C(=O)NCc2ccncc2)c(N)nc1-c1ncco1 [Ex-27, 3-amino-6-methyl-5-(1,3-oxazol-2-yl)-N-(pyridin-4-ylmethyl)pyrazine-2-carboxamide] | 120 nM |
| Cc1nc(C(=O)NCc2cccnc2)c(N)nc1-c1ncco1 [Ex-28, 3-amino-6-methyl-5-(1,3-oxazol-2-yl)-N-(pyridin-3-ylmethyl)pyrazine-2-carboxamide] | 14.5 nM |
| Cc1nc(C(=O)NCc2cc3ccccc3cn2)c(N)nc1-c1ncco1 [Ex-29, 3-amino-N-(isoquinolin-3-ylmethyl)-6-methyl-5-(1,3-oxazol-2-yl)pyrazine-2-carboxamide] | 0.336 nM |
| Cc1nc(C(=O)NCc2ccccc2F)c(N)nc1-c1ncco1 [Ex-30, 3-amino-N-(2-fluorobenzyl)-6-methyl-5-(1,3-oxazol-2-yl)pyrazine-2-carboxamide] | 0.314 nM |
| Cc1nc(C(=O)NCc2cccc(F)c2)c(N)nc1-c1ncco1 [Ex-31, 3-amino-N-(3-fluorobenzyl)-6-methyl-5-(1,3-oxazol-2-yl)pyrazine-2-carboxamide] | 0.737 nM |
| Cc1nc(C(=O)N2CCCC(F)(F)C2)c(N)nc1-c1ncco1 [Ex-34, 3-[(3,3-difluoropiperidin-1-yl)carbonyl]-5-methyl-6-(1,3-oxazol-2-yl)pyrazin-2-amine] | 847 nM |

Second part, the compound after the results:

| Ki | SMILES |
| --- | --- |
| 1.03 nM | COC[C@H]1CCC[C@H]1NC(=O)c1nc(C)c(-c2ncco2)nc1N (stereo in doubt) [Ex-171, 3-amino-N-[(1R,2S)-2-(methoxymethyl)cyclopentyl]-6-methyl-5-(1,3-oxazol-2-yl)pyrazine-2-carboxamide] |
| 0.199 nM | Cc1cccnc1CNC(=O)c1nc(C)c(-c2ncco2)nc1N [Ex-5, 3-amino-6-methyl-N-[(3-methylpyridin-2-yl)methyl]-5-(1,3-oxazol-2-yl)pyrazine-2-carboxamide] |
| 0.387 nM | Cc1nc(C(=O)N[C@H]2CCc3cccnc32)c(N)nc1-c1ncco1 [Ex-7B, (S)-3-amino-N-(6,7-dihydro-5H-cyclopenta[b]pyridin-7-yl)-6-methyl-5-(1,3-oxazol-2-yl)pyrazine-2-carboxamide] |
| 0.64 nM | Cc1nc(C(=O)NCc2cccc3cccnc23)c(N)nc1-c1ncco1 [Ex-9, 3-amino-6-methyl-5-(1,3-oxazol-2-yl)-N-(quinolin-8-ylmethyl)pyrazine-2-carboxamide] |
| 9.82 nM | Cc1nc(C(=O)NCc2ccno2)c(N)nc1-c1ncco1 [Ex-12, 3-amino-N-(isoxazol-5-ylmethyl)-6-methyl-5-(1,3-oxazol-2-yl)pyrazine-2-carboxamide] |
| 2.12 nM | Cc1c[nH]c(CNC(=O)c2nc(C)c(-c3ncco3)nc2N)n1 [Ex-14, 3-amino-6-methyl-N-[(4-methyl-1H-imidazol-2-yl)methyl]-5-(1,3-oxazol-2-yl)pyrazine-2-carboxamide] |
| 1.25 nM | Cc1nc(C(=O)NCc2nccn2C)c(N)nc1-c1ncco1 [Ex-15, 3-amino-6-methyl-N-[(1-methyl-1H-imidazol-2-yl)methyl]-5-(1,3-oxazol-2-yl)pyrazine-2-carboxamide] |
| 5.14 nM | Cc1nc(C(=O)NCc2ncc[nH]2)c(N)nc1-c1ncco1 [Ex-16, 3-amino-N-(1H-imidazol-2-ylmethyl)-6-methyl-5-(1,3-oxazol-2-yl)pyrazine-2-carboxamide] |
| 17.3 nM | Cc1nc(C(=O)NCc2cncs2)c(N)nc1-c1ncco1 [Ex-17, 3-amino-6-methyl-5-(1,3-oxazol-2-yl)-N-(1,3-thiazol-5-ylmethyl)pyrazine-2-carboxamide] |
| 0.151 nM | Cc1nc(C(=O)NCc2ncccc2C(F)(F)F)c(N)nc1-c1ncco1 [Ex-18, 3-amino-6-methyl-5-(1,3-oxazol-2-yl)-N-{[3-(trifluoromethyl)pyridin-2-yl]methyl}pyrazin-2-carboxamide] |
| 2.76 nM | Cc1nc(C(=O)NCc2ncccn2)c(N)nc1-c1ncco1 [Ex-19, 3-amino-6-methyl-5-(1,3-oxazol-2-yl)-N-(pyrimidin-2-ylmethyl)pyrazine-2-carboxamide] |
| 0.934 nM | Cc1nc(C(=O)NCc2cccc(N(C)C)n2)c(N)nc1-c1ncco1 [Ex-21, 3-amino-N-{[6-(dimethylamino)pyridin-2-yl]methyl}-6-methyl-5-(1,3-oxazol-2-yl)pyrazine-2-carboxamide] |
| 0.919 nM | COc1cccc(CNC(=O)c2nc(C)c(-c3ncco3)nc2N)n1 [Ex-22, 3-amino-N-[(6-methoxypyridin-2-yl)methyl]-6-methyl-5-(1,3-oxazol-2-yl)pyrazine-2-carboxamide] |
| 0.293 nM | Cc1nc(C(=O)NCc2cccc3ccncc23)c(N)nc1-c1ncco1 [Ex-23, 3-amino-N-(isoquinolin-8-ylmethyl)-6-methyl-5-(1,3-oxazol-2-yl)pyrazine-2-carboxamide] |
| 78.5 nM | Cc1nc(C(=O)N2CCCc3ccccc32)c(N)nc1-c1ncco1 [Ex-24] |
| 16.2 nM | Cc1nc(C(=O)NCCc2ccccn2)c(N)nc1-c1ncco1 [Ex-25, 3-amino-6-methyl-5-(1,3-oxazol-2-yl)-N-(2-pyridin-2-ylethyl)pyrazine-2-carboxamide] |
| 1.71 nM | Cc1nc(C(=O)NCc2ccn(C)n2)c(N)nc1-c1ncco1 [Ex-26, 3-amino-6-methyl-N-[(1-methyl-1H-pyrazol-3-yl)methyl]-5-(1,3-oxazol-2-yl)pyrazine-2-carboxamide] |
| 1.5 nM | Cc1nc(C(=O)NCc2ccc(F)cc2)c(N)nc1-c1ncco1 [Ex-32, 3-amino-N-(4-fluorobenzyl)-6-methyl-5-(1,3-oxazol-2-yl)pyrazine-2-carboxamide] |
| 2.8 nM | Cc1nc(C(=O)NCc2ccc3ccccc3n2)c(N)nc1-c1ncco1 [Ex-33, 3-amino-6-methyl-5-(1,3-oxazol-2-yl)-N-(quinolin-2-ylmethyl)pyrazine-2-carboxamide] |
